Measured values taken from patent US20250179061A1 (SIRONAX LTD., priority 2022, published 2025).
Where two headings read alike, the source gives them in different places.

System: HT-29 cells
Experiment: HT-29 necroptosis cell viability assay (TNF-α/SMAC mimetic/zVAD-FMK, CellTiter-Glo)
Type: cell-based
Conditions: Homo sapiens
Protocol: Compounds 1-702 of the disclosure were tested for biological activity, following the experimental procedures described below.
• Cell line: HT-29 (ATCC® HTB-38™) • Culture medium: McCOY's 5A, Gibco, Cat No. 16600-082 • FBS, Gibco, Cat No. 10099-141 C • Trypsin: Gibco, Cat No. 25200-056 • DMSO: Sigma, Cat No. 67-68-5, 1L • Assay plate: Corning #3903 • Compound dilution plate: Corning #3357 • Inducers: TNFα, GenScript, Cat No. Z01001-50, • SmacM, Cat. No., HY-15989, MedChemExpress (MCE) • Z_VAD FMK, TargetMol, T6013 • Cell Titer-Glo® Luminescent Cell Viability Assay Kit: Promega, Cat No. G7573 • EnVision: PerkinElmer, 2105-0010
• 1. HT-29 cells were checked every day to make sure that they were healthy and growing as expected. They were subjected to sub-culturing when they were approximately 80% confluent. • 2. The culture medium, McCOY's 5A medium (Gibco, Cat No. 16600-082) with 10% fetal bovine serum or FBS (Gibco, Cat No. 10099-141C), was pre-warmed in a 37° C. water bath for at least 30 min. • 3. When the cells had reached a desired level of confluency of 80% in a T75 flask, the medium was aspirated, and the cells were washed with warm phosphate buffered saline or PBS two times. • 4. 2-3 ml fresh warm trypsin (Gibco, Cat No. 25200-056) solution was added to the washed cells. The flask with the cells was transferred to a 37° C. incubator. • 5. After 5 minutes, the side of the flask was tapped, and the flask was examined under a microscope for detachment of the cells to the flask. If necessary, the cells were kept in the incubator for an additional 5-10 minutes, with occasional tapping, until lifting was complete. • 6. The trypsin reaction was neutralized by transferring 6-9 ml cell culture medium to sterile 15 ml conical tubes, and by centrifuging the cell culture at 300×g for 7 minutes to pellet the cells (supernatant decanted). • 7. The cells were resuspended in fresh cell culture medium and the cell counting was performed using a hemocytometer. • 8. 100 μl of the resuspended cell culture medium containing ˜5,000 cells were transferred into each well of the sterile 96-well cell culture plate (Corning 3903) and cultured overnight at 37° C. with 5% CO2.
• 1. All test compounds were dissolved in DMSO (Dimethyl sulfoxide) to create a 20 mM stock. • 2. 3 μl of 20 mM stock of each compound was mixed with 27 μl DMSO, and the compound solution was further diluted at a titration ratio of 1:3 (20 μl compound solution+40 μl DMSO) till the 10 points end. • 3. All culture medium was removed from assay plates filled with HT-29 cell cultures. The cells were then washed with 1 PBS, and resuspsended in fresh, FBS-free McCOY's 5A medium containing a cocktail of TNF-α (10 ng/ml), a SMAC mimetic compound (6 μM) and Z-VAD-fluoromethylketone or zVAD-FMK (10 μM) to stimulate the HT-29 cells to increase RIP1 kinase levels and necroptosis. • 4. 0.5 μL of the diluted compound solution was added to the corresponding 96-well assay plates. • 5. The assay plates were incubated for 20 hours at 37° C. with 5% CO2.
• 1. The CellTiter-Glo® Luminescent Cell Viability Assay was employed to detect the ATP levels of viable HT-29 cells. • 2. The CellTiter-Glo® buffer and the lyophilized substrate were equilibrated to room temperature prior to use. • 3. The CellTiter-Glo® substrate was resuspended with CellTiter-Glo® buffer, then mixed by gently vortexing to obtain a homogeneous solution. • 4. 20 μl of the enzyme/substrate mixture was transferred by multi-channel pipetting into 96-well assay plates. • 5. The assay plates were placed on an orbital shaker and the contents were shaken for 3 minutes to induce cell lysis. • 6. The assay plates were incubated at room temperature for 10 minutes to stabilize the luminescent signal. • 7. The luminescence signals were read and recorded with EnVision. • 8. The geometric mean IC50 values were calculated from 10 points response dose with duplicates. […]

[1] = HT-29, HT-29 necroptosis cell viability, IC50 class symbols, read-out: Activity
[2] = HT-29, HT-29 necroptosis cell viability assay, class symbols for IC50, read-out: Activity
[3] = HT-29, HT-29 cells, necroptosis induced by TNF-α/SMAC mimetic/zVAD-FMK, CellTiter-Glo, read-out: Activity (IC50 class)

Row | SMILES | IC50 [1] | IC50 [2] | further results
1 | O=c1n(Cc2c(F)cccc2F)cnn1-c1ccc(Oc2c(Cl)cccc2[N+](=O)[O-])cc1 [Example 434, 2-(4-(2-chloro-6-nitrophenoxy)phenyl)-4-(2,6-difluorobenzyl)-2,4-dihydro-3H-1,2,4-triazol-3-one] | < 100 nM |  | 
2 | Cc1nc(C(=O)N2CC(N)C2)sc1Oc1ccc(-n2ncn(Cc3ccccc3F)c2=O)cc1F [Example 600, 2-(4-((2-(3-aminoazetidine-1-carbonyl)-4-methylthiazol-5-yl)oxy)-3-fluorophenyl)-4-(2-fluorobenzyl)-2,4-dihydro-3H-1,2,4-triazol-3-one] |  | < 100 nM | 
3 | CC(C)(C)CNc1cc(Oc2ccc(-n3ncn(Cc4c(F)cccc4F)c3=O)cc2)ccn1 [Example 386, 4-(2,6-difluorobenzyl)-2-(4-((2-(neopentylamino)pyridin-4-yl)oxy)phenyl)-2,4-dihydro-3H-1,2,4-triazol-3-one] | < 100 nM |  | 
4 | Cc1ncsc1Oc1ccc(-n2nc3n(c2=O)[C@@H](c2ccccc2)CC3)cc1F (single isomer, unassigned) [Example 4] |  |  | IC50 (HT-29 cells stimulated with TNF-α (10 ng/ml), SMAC mimetic (6 μM) and zVAD-FMK (10 μM), 20 hours, CellTiter-Glo ATP luminescence, geometric mean IC50 from 10 points, read-out: Activity): < 100 nM
5 | CCOC1(C)CN(c2nccc(Oc3ccc(-n4ncn(Cc5c(F)cccc5F)c4=O)cc3Cl)c2F)C1 [Example 502, 2-(3-chloro-4-((2-(3-ethoxy-3-methylazetidin-1-yl)-3-fluoropyridin-4-yl)oxy)phenyl)-4-(2,6-difluorobenzyl)-2,4-dihydro-3H-1,2,4-triazol-3-one] |  | < 100 nM | 
6 | CCOC(=O)C(=O)c1nc(C)c(Oc2ccc(-n3ncn(Cc4c(F)cccc4F)c3=O)cc2F)s1 [Example 117, ethyl 2-(5-(4-(4-(2,6-difluorobenzyl)-5-oxo-4,5-dihydro-1H-1,2,4-triazol-1-yl)-2-fluorophenoxy)-4-methylthiazol-2-yl)-2-oxoacetate] |  | 100 to 1000 nM | 
7 | Cc1cn(Cc2ccc(-n3nc4n(c3=O)C(c3ccccc3)CC4)cc2F)c(C)c1C(N)=O (stereo not shown) [Example 222, 1-(2-fluoro-4-(3-oxo-5-phenyl-6,7-dihydro-3H-pyrrolo[2,1-c][1,2,4]triazol-2(5H)-yl)benzyl)-2,4-dimethyl-1H-pyrrole-3-carboxamide] |  | < 100 nM | 
8 | C[C@H]1[C@@H](C#N)CN1c1nccc(Oc2ccc(-n3ncn(Cc4c(F)cccc4F)c3=O)cc2)c1F [Example 242, (2S,3S)-1-(4-(4-(4-(2,6-difluorobenzyl)-5-oxo-4,5-dihydro-1H-1,2,4-triazol-1-yl)phenoxy)-3-fluoropyridin-2-yl)-2-methylazetidine-3-carbonitrile] | < 100 nM |  | 
9 | CN(C)c1cc(C#N)ccc1Oc1ccc(-n2ncn(Cc3c(F)cccc3F)c2=O)cc1F [Example 676, 4-(4-(4-(2,6-difluorobenzyl)-5-oxo-4,5-dihydro-1H-1,2,4-triazol-1-yl)-2-fluorophenoxy)-3-(dimethylamino)benzonitrile] |  |  | IC50 [3]: < 100 nM
10 | Cc1nc(C2=CCOC2)sc1Oc1ccc(-n2ncn(Cc3c(F)cccc3F)c2=O)cc1 [Example 632, 4-(2,6-difluorobenzyl)-2-(4-((2-(2,5-dihydrofuran-3-yl)-4-methylthiazol-5-yl)oxy)phenyl)-2,4-dihydro-3H-1,2,4-triazol-3-one] |  |  | IC50 [3]: < 100 nM
11 | CC1(Nc2cc(Oc3ccc(-n4ncn(Cc5c(F)cccc5F)c4=O)cc3)ccn2)CC1 [Example 532, 4-(2,6-difluorobenzyl)-2-(4-((2-((1-methylcyclopropyl)amino)pyridin-4-yl)oxy)phenyl)-2,4-dihydro-3H-1,2,4-triazol-3-one] |  | < 100 nM | 
12 | Cc1nc(C(C)(C)O)sc1Oc1ccc(-n2ncn(Cc3ccccc3C#N)c2=O)cc1F [Example 584, 2-((1-(3-fluoro-4-((2-(2-hydroxypropan-2-yl)-4-methylthiazol-5-yl)oxy)phenyl)-5-oxo-1,5-dihydro-4H-1,2,4-triazol-4-yl)methyl)benzonitrile] |  | 100 to 1000 nM | 
13 | O=c1n(Cc2c(F)cccc2F)cnn1-c1ccc(Oc2ccnnc2)cc1 [Example 431, 4-(2,6-difluorobenzyl)-2-(4-(pyridazin-4-yloxy)phenyl)-2,4-dihydro-3H-1,2,4-triazol-3-one] | 1000 to 10000 nM |  | 
